Patent US20260034277A1, “SYSTEMS AND METHODS FOR PATHOGEN INACTIVATION OF BLOOD PRODUCTS” (Cerus Corporation, priority 2024, published 2026)

Tests used:
Klebsiella pneumoniae = Klebsiella pneumoniae inactivation in platelet units with amotosalen/UVA, colony forming unit assay; assay type: cell-based
Experimental: A study was performed to evaluate pathogen inactivation with treatment profiles from Example 1 and the bacterium Klebsiella pneumoniae. Units of platelets, prepared in 47% plasma/53% PAS at a volume of 250 mL (except the 70 μM study group at a volume of 200 mL), were inoculated with an overnight culture of Klebsiella pneumoniae (targeting the final concentration in unit of approximately 6 log CFU/mL) and dosed with the target amotosalen concentration (40 μM, 45 μM, 55 μM or 70 μM) in an illumination container of an INTERCEPT® Blood System processing set. The units were mixed well, and samples were collected from each unit prior to UV illumination to determine pre-treatment bacterial titers and amotosalen concentration. The Klebsiella-contaminated platelet units were then subjected to a UVA light dose of 3.8 J/cm^2 (3.2 J/cm^2 for the 200 mL units) using an illuminator with LED light sources having peak wavelength between 340-350 nm. Samples were collected post-illumination and both the pre- and post-UVA illumination samples were analyzed by standard colony forming unit assay to determine the level of bacterial inactivation.
(§1) A similar study was performed with the bacterium Klebsiella pneumoniae. Four units of platelets in 47% plasma/53% PAS at a volume of 450 mL were inoculated in a 1.3 L illumination container with an overnight culture of Klebsiella pneumoniae at a target input pathogen concentration of approximately 8 log CFU/mL per unit and dosed with S-59 to achieve a target concentration of 55 μM. Samples were collected pre- and post-UVA illumination with a light dose of 6.3 J/cm^2 for determination of bacterial titers by standard colony forming unit assay and S-59 concentration by HPLC.

[1] = S-59 photoconversion in platelets after dosing-device delivery, HPLC pre- and post-illumination; assay type: physicochemical; conditions: target 55 μM
Experimental: After confirming the accuracy of S-59 dosing into PAS, the next study evaluated dosing of S-59 into a blood component, platelets suspended in plasma and PAS, and photoconversion of S-59 post-UVA treatment to determine residual S-59 levels and generate (e.g., plot) a volume to light dose curve, similar to Example 1. Different size illumination containers (1.0 L and 1.3 L) were evaluated with multiple different platelet volumes and multiple different UVA light doses used for photochemical treatment of each volume and container size.
More specifically, platelets suspended in […]/53% PAS at volumes of 200 mL, 250 mL or 300 mL in a 1.0 L illumination container, and 300 mL, 350 mL or 450 mL in a 1.3 L illumination container, were dosed at varying input volumes of the S-59 psoralen compound to achieve a target final concentration of 55 μM. Samples were taken to confirm pre-illumination S-59 concentration and each of the S-59 containing platelet volumes was then illuminated with different light doses as shown in the following Tables 8A and 8B using an illuminator device with LED light sources (e.g., narrow bandwidth) having peak wavelength between 340-350 nm.
Pathogen inactivation of both viruses and bacteria was also tested using dosing device system-based quantized dosing of amotosalen and the treatment parameters described above. In one study, four units of platelets in 47% plasma/53% PAS at a higher 450 mL volume were inoculated in a 1.3 L illumination container with bluetongue virus (BTV) at a target pathogen input concentration of approximately 5.0 log PFU/mL per unit and dosed with amotosalen (S-59) to achieve at a target concentration of 55 μM. The units were mixed, and samples were collected from each unit prior to UV illumination to determine pre-treatment viral titers and S-59 concentration. The BTV-contaminated platelet units were then subjected to a UVA light dose of 6.3 J/cm^2 using an illuminator with LED light sources having peak wavelength between 340-350 nm. Samples were collected post-illumination, and both the pre- and post-UVA illumination samples were analyzed by standard plaque assay to determine the level of virus inactivation and by HPLC to determine the S-59 concentration.
as §1

[2] = target S-59 40 μM, 250 mL platelets, UVA 3.8 J/cm^2
[3] = target S-59 45 μM, 250 mL platelets, UVA 3.8 J/cm^2
[4] = target S-59 55 μM, 250 mL platelets, UVA 3.8 J/cm^2
[5] = target S-59 70 μM, 200 mL platelets, UVA 3.2 J/cm^2

Cc1oc2c(C)c3oc(=O)cc(C)c3cc2c1COCCN [S-59, 3-(2-aminoethoxymethyl)-2,5,9-trimethylfuro[3,2-g]chromen-7-one]
Post-UVA titer (Klebsiella pneumoniae; device-dosed S-59 target 55 μM, 450 mL platelets, 1.3 L container, UVA 6.3 J/cm^2): 0.3 ± 0.4 cfu/mL
bacterial inactivation (log reduction) (Klebsiella pneumoniae; each of the four target amotosalen input concentrations (40, 45, 55, 70 μM)): greater than 5 logs
Log Reduction (Klebsiella pneumoniae; [2]): 5.6 ± 0.8 log
Post-UVA CFU/mL (Klebsiella pneumoniae; [2]): 6.7 ± 11.5 CFU/mL
Log Reduction (Klebsiella pneumoniae; [3]): 5.9 ± 0.0 log
Post-UVA CFU/mL (Klebsiella pneumoniae; [3]): 0.2 ± 0.1 CFU/mL
Log Reduction (Klebsiella pneumoniae; [4]): 6.0 ± 0.1 log
Post-UVA CFU/mL (Klebsiella pneumoniae; [4]): 0.4 ± 0.5 CFU/mL
Log Reduction (Klebsiella pneumoniae; [5]): ≥6.1 ± 0.1 log
Post-UVA CFU/mL (Klebsiella pneumoniae; [5]): 0.03 ± 0.1 CFU/mL
Post-UVA S-59 ([1]; 1.0 L container, 200 mL platelets, 2.8 J/cm^2): 5.22 ± 0.50 µM
Post-UVA S-59 ([1]; 1.0 L container, 200 mL platelets, 3.0 J/cm^2): 4.40 ± 0.64 µM
Post-UVA S-59 ([1]; 1.0 L container, 200 mL platelets, 3.2 J/cm^2): 3.71 ± 0.07 µM
Post-UVA S-59 ([1]; 1.0 L container, 200 mL platelets, 3.4 J/cm^2): 3.09 ± 0.18 µM
Post-UVA S-59 ([1]; 1.0 L container, 250 mL platelets, 3.4 J/cm^2): 4.25 ± 0.13 µM
Post-UVA S-59 ([1]; 1.0 L container, 250 mL platelets, 3.6 J/cm^2): 3.83 ± 0.74 µM
Post-UVA S-59 ([1]; 1.0 L container, 250 mL platelets, 3.8 J/cm^2): 3.81 ± 0.49 µM
Post-UVA S-59 ([1]; 1.0 L container, 250 mL platelets, 4.0 J/cm^2): 3.11 ± 1.18 µM
Post-UVA S-59 ([1]; 1.0 L container, 300 mL platelets, 4.1 J/cm^2): 7.13 ± 2.95 µM
Post-UVA S-59 ([1]; 1.0 L container, 300 mL platelets, 4.3 J/cm^2): 6.85 ± 3.00 µM
Post-UVA S-59 ([1]; 1.0 L container, 300 mL platelets, 4.6 J/cm^2): 2.86 ± 1.36 µM
Post-UVA S-59 ([1]; 1.0 L container, 300 mL platelets, 4.8 J/cm^2): 3.63 ± 1.66 µM
Post-UVA S-59 ([1]; 1.3 L container, 300 mL platelets, 4.1 J/cm^2): 4.64 ± 0.13 µM
Post-UVA S-59 ([1]; 1.3 L container, 300 mL platelets, 4.3 J/cm^2): 3.43 ± 1.30 µM
Post-UVA S-59 ([1]; 1.3 L container, 350 mL platelets, 4.8 J/cm^2): 3.54 ± 1.01 µM
Post-UVA S-59 ([1]; 1.3 L container, 350 mL platelets, 5.0 J/cm^2): 2.98 ± 0.91 µM
Post-UVA S-59 ([1]; 1.3 L container, 450 mL platelets, 6.1 J/cm^2): 3.79 ± 0.49 µM
Post-UVA S-59 ([1]; 1.3 L container, 450 mL platelets, 6.3 J/cm^2): 3.56 ± 0.37 µM
Post-UVA S-59 ([1]; BTV-inoculated units, 450 mL platelets, 1.3 L container, 6.3 J/cm^2): 3.0 ± 0.7 µM
Post-UVA S-59 ([1]; K. pneumoniae-inoculated units, 450 mL platelets, 1.3 L container, 6.3 J/cm^2): 3.2 ± 0.5 µM
